Source: PMC10294832, “Investigation of Naphthyl–Polyamine Conjugates as Antimicrobials and Antibiotic Enhancers” (Antibiotics, 2023)
“And” between values parts separate entries of the source, which are not always exact repeats. Equal values may be shown once.

How the values were obtained:
[1] = system: A. baumannii (ATCC 19606); experiment: Antimicrobial MIC, A. baumannii; format: cell-based, Acinetobacter baumannii; details: Acinetobacter baumannii, ATCC19606, A. baumannii (ATCC 19606); mean (n = 2)
Procedure: (§1) The susceptibility of bacterial strains S. aureus (ATCC 25,923 or 29213), E. coli (ATCC 25922), and P. aeruginosa (ATCC 27853) to antibiotics and compounds was determined according to previously reported protocols. Additional antimicrobial evaluation against MRSA (ATCC 43300), Klebsiella pneumoniae (ATCC 700603), Acinetobacter baumannii (ATCC 19606), Candida albicans (ATCC 90028), and Cryptococcus neoformans (ATCC 208821) was undertaken at the Community for Open Antimicrobial Drug Discovery at The University of Queensland (Australia) according to their standard protocols as reported previously.

[2] = system: E. coli (ATCC 25922); experiment: Antimicrobial MIC, E. coli; format: cell-based, Escherichia coli; details: Escherichia coli, ATCC25922, E. coli (ATCC 25922); mean (n = 2)
Procedure: as §1

[3] = system: S. aureus (ATCC 25,923 or ATCC 29213); experiment: Antimicrobial MIC, S. aureus; format: cell-based, Staphylococcus aureus; details: Staphylococcus aureus, mean (n = 3)
Procedure: as §1

[4] = system: MRSA (ATCC 43300); experiment: Antimicrobial MIC, MRSA; format: cell-based, methicillin-resistant Staphylococcus aureus; details: Staphylococcus aureus, MRSA (ATCC 43300); mean (n = 2); read-out: MIC MRSA
Procedure: as §1

[5] = system: E. coli (ATCC 25922); experiment: Enhancement of erythromycin activity; format: cell-based, Escherichia coli; details: for Eryth/E.c: concentration required to restore erythromycin activity (combination MIC): erythromycin fixed at 10.9 µM (8 µg/mL), E. coli (ATCC 25922); for Eryth/E.c fold change: ratio between intrinsic MIC of test compound and combination MIC, erythromycin 10.9 µM, E. coli
Procedure: Restoring enhancer concentrations were determined using previously reported protocols.

[6] = system: P. aeruginosa (ATCC 27853); experiment: Enhancement of doxycycline activity; format: cell-based, Pseudomonas aeruginosa; details: for Dox/P.a: concentration required to restore doxycycline activity (combination MIC): doxycycline fixed at 4.5 µM (2 µg/mL), P. aeruginosa (ATCC 27853); for Dox/P.a fold change: ratio between intrinsic MIC of test compound and combination MIC, doxycycline 4.5 µM, P. aeruginosa
[7] = Cytotoxicity assay; format: cell-based, human; details: human, HEK293 human embryonic kidney cells, concentration at 50% cytotoxicity on HEK293 cells; mean (n = 2)
Procedure: Cytotoxicity assays were conducted using the protocols previously reported.

[8] = system: C. albicans (ATCC 90028); experiment: Antifungal MIC, C. albicans; format: cell-based; details: Candida albicans, ATCC90028, mean (n = 2)
Procedure: as §1

[9] = system: P. aeruginosa (PAO1 or ATCC 27853); experiment: Antimicrobial MIC, P. aeruginosa; format: cell-based; details: Pseudomonas aeruginosa; P. aeruginosa (PAO1 or ATCC 27853); mean (n = 3); read-out: MIC P. a
Procedure: as §1

[10] = system: C. neoformans (ATCC 208821); experiment: Antifungal MIC, C. neoformans; format: cell-based, Cryptococcus neoformans; details: Cryptococcus neoformans, ATCC208821, C. neoformans (ATCC 208821); mean (n = 2)
Procedure: as §1

[11] = system: K. pneumoniae (ATCC 700603); experiment: Antimicrobial MIC, K. pneumoniae; format: cell-based; details: Klebsiella pneumoniae, ATCC700603, mean (n = 2)
Procedure: as §1

[12] = system: human red blood cells; experiment: Hemolytic assay; format: cell-based; details: concentration at 10% hemolytic activity on human red blood cells; mean (n = 2)
Procedure: Hemolysis assays were conducted using the protocols previously reported.

Structure (SMILES)	melting point [°C]	MIC [1] [µM]	MIC [2] [µM]	MIC [3] [µM]	MIC [4] [µM]	Eryth/E.c: concentration required to restore erythromycin activity (combination MIC) [5] [µM]	Dox/P.a: concentration required to restore doxycycline activity (combination MIC) [6] [µM]	MIC [8] [µM]	MIC [9] [µM]	MIC [10] [µM]	MIC [11] [µM]	Eryth/E.c fold change [5] [fold]	Dox/P.a fold change [6] [fold]	IC50 [7] [µM]	Hemolysis HC10 [12]
O=C(CCC(=O)Nc1ccc(-c2ccccc2)cc1)NCCCNCCCCCCCCCCNCCCNC(=O)CCC(=O)Nc1ccc(-c2ccccc2)cc1.O=C(O)C(F)(F)F.O=C(O)C(F)(F)F [Compound 21e, N^1,N^10-Bis(3-(4-([1,1’-biphenyl]-4-ylamino)-4-oxobutanamido)propyl)decane-1,10-diaminium 2,2,2-trifluoroacetate]	184 to 186	> 31.5	300	300	0.246	300	300	31.5	300	15.7	> 31.5	1	1	> 31.5	6.3 µM and 6.32 µM
O=C(O)CCC(=O)Nc1ccc(-c2ccccc2)cc1 [Compound 12, 4-([1,1’-Biphenyl]-4-ylamino)-4-oxobutanoic Acid]	> 230	–	–	–	–	–	–	–	–	–	–	–	–	–	–
O=C(O)CCC(=O)Nc1cccc2ccccc12 [Compound 9, 4-(Naphthalen-1-ylamino)-4-oxobutanoic Acid]	165 to 167	–	–	–	–	–	–	–	–	–	–	–	–	–	–
O=C(CCC(=O)Nc1ccc(-c2ccccc2)cc1)NCCCNCCCCCCCNCCCNC(=O)CCC(=O)Nc1ccc(-c2ccccc2)cc1.O=C(O)C(F)(F)F.O=C(O)C(F)(F)F [Compound 21c, N^1,N^7-Bis(3-(4-([1,1’-biphenyl]-4-ylamino)-4-oxobutanamido)propyl)heptane-1,7-diaminium 2,2,2-trifluoroacetate]	178 to 180	> 32.8	300	200	0.256	300	300	> 32.8	300	> 32.8	> 32.8	1	1	> 32.8	>32.8 µM
O=C(CCC(=O)Nc1ccc(-c2ccccc2)cc1)NCCCNCCCCCCCCNCCCNC(=O)CCC(=O)Nc1ccc(-c2ccccc2)cc1.O=C(O)C(F)(F)F.O=C(O)C(F)(F)F [Compound 21d, N^1,N^8-Bis(3-(4-([1,1’-biphenyl]-4-ylamino)-4-oxobutanamido)propyl)octane-1,8-diaminium 2,2,2-trifluoroacetate]	182 to 184	> 32.4	300	300	0.506	300	300	> 32.4	300	> 32.4	> 32.4	1	1	> 32.4	>32.4 µM
O=C(CCC(=O)Nc1ccc(-c2ccccc2)cc1)NCCCNCCCCCCNCCCNC(=O)CCC(=O)Nc1ccc(-c2ccccc2)cc1.O=C(O)C(F)(F)F.O=C(O)C(F)(F)F [Compound 21b, N^1,N^6-Bis(3-(4-([1,1’-biphenyl]-4-ylamino)-4-oxobutanamido)propyl)hexane-1,6-diaminium 2,2,2-trifluoroacetate]	200 to 202	> 33.3	300	300	2.08	300	300	> 33.3	300	> 33.3	> 33.3	1	1	> 33.3	>33.3 µM

Second part, led by results:

melting point [°C]	MIC [1] [µM]	MIC [2] [µM]	MIC [3] [µM]	MIC [4] [µM]	Eryth/E.c: concentration required to restore erythromycin activity (combination MIC) [5] [µM]	Dox/P.a: concentration required to restore doxycycline activity (combination MIC) [6] [µM]	MIC [8] [µM]	MIC [9] [µM]	MIC [10] [µM]	MIC [11] [µM]	Structure (SMILES)	Eryth/E.c fold change [5] [fold]	Dox/P.a fold change [6] [fold]	IC50 [7] [µM]	Hemolysis HC10 [12]
225 to 227	> 41.7	200	200	> 41.7	100	12.5	> 41.7	200	> 41.7	> 41.7	O=C(NCCCNCCCCCCNCCCNC(=O)c1cccc2ccccc12)c1cccc2ccccc12.O=C(O)C(F)(F)F.O=C(O)C(F)(F)F [Compound 17b, N^1,N^6-Bis(3-(1-naphthamido)propyl)hexane-1,6-diaminium 2,2,2-trifluoroacetate]	2	16	> 41.7	>41.7 µM
238 to 239	> 43.3	677	677	> 43.3	67.7	271	> 43.3	677	> 43.3	> 43.3	O=C(NCCCNCCCCNCCCNC(=O)c1cccc2ccccc12)c1cccc2ccccc12.O=C(O)C(F)(F)F.O=C(O)C(F)(F)F [Compound 17a, N^1,N^4-Bis(3-(1-naphthamido)propyl)butane-1,4-diaminium 2,2,2-trifluoroacetate]	10	2.5	–	–
–	> 40.3	126	7.9	40.3	15.7	15.7	> 40.3	126	40.3	> 40.3	O=C(NCCCNCCCCCCCCNCCCNC(=O)c1ccc2ccccc2c1)c1ccc2ccccc2c1.O=C(O)C(F)(F)F.O=C(O)C(F)(F)F [Compound 19d, N^1,N^8-Bis(3-(2-naphthamido)propyl)octane-1,8-diaminium 2,2,2-trifluoroacetate]	8	8	> 40.3	>40.3 µM
–	> 34.2	107	13.3	> 34.2	26.7	53.4	> 34.2	> 107	17.1	> 34.2	O=C(CCC(=O)Nc1ccc2ccccc2c1)NCCCNCCCCCCCCNCCCNC(=O)CCC(=O)Nc1ccc2ccccc2c1.O=C(O)C(F)(F)F.O=C(O)C(F)(F)F [Compound 20d, N^1,N^8-Bis(3-(4-(naphthalen-2-ylamino)-4-oxobutanamido)propyl)octane-1,8-diaminium 2,2,2-trifluoroacetate]	4	> 2	> 34.2	>34.2 µM
–	> 34.7	200	> 200	> 34.7	200	12.5	> 34.7	200	> 34.7	> 34.7	O=C(CCC(=O)Nc1cccc2ccccc12)NCCCNCCCCCCCNCCCNC(=O)CCC(=O)Nc1cccc2ccccc12.O=C(O)C(F)(F)F.O=C(O)C(F)(F)F [Compound 18c, N^1,N^7-Bis(3-(4-(naphthalen-1-ylamino)-4-oxobutanamido)propyl)heptane-1,7-diaminium 2,2,2-trifluoroacetate]	1	16	> 34.7	>34.7 µM
